Data on 11 molecules can be found in patent US10059975B2, “Methods for the isolation and identification of microorganisms” (bioMerieux, Inc., priority 2008, dated 2018).

What all share (assay type): cell-based
Test [1] has as its system Streptococcus pneumoniae, strain WM-43. Description: Effect of detergent type on Gram reactivity, viability and intrinsic fluorophores. The following applies: for Gram Stain of Pellet: Bacteria (cocci): detergent in 0.3M CAPS, pH 11.7, 1 min at 37° C.; for effect on Gram reaction/reactivity of the S. pneumoniae isolate (in words): Table 4; for Viability of Pellet: 1:100 dilution of resuspended pellet plated on Sheep Blood Agar, scale NG to 4+. Details: key to Viability of Pellet: NG (no growth); 4+(maximal growth). As for the experimental part:
Lysis buffers were prepared containing detergents of differing structure and lytic activity in a base buffer formulation of 0.3M CAPS, pH 11.7. These lysis buffers were functionally assessed using positive blood culture broth containing a clinical microorganism strain known to be sensitive to detergents and alkaline pH conditions, Streptococcus pneumoniae, strain WM-43. Parameters evaluated were microbial intrinsic fluorescence levels (Excitation-Emission Matrix spectra), separation efficiency, appearance of isolated microbial pellet, and Gram stain characteristics and viability of microorganisms recovered from the pellet beneath the density cushion.
The procedure was performed as follows:
Mix 2 parts of positive broth with 1 part of test lysis buffer, incubate in a 37° C. water bath for 1 minute to lyse blood cells, then layer 0.5 mL of lysate over 0.2 mL of density cushion (14% w/v Iohexyl+1.93% w/v NaCl+10 mM Hepes, pH 7.4) dispensed into a 2-piece optical separation tube which was then hermetically sealed with a screw-cap. After centrifuging the tube in an Eppendorf 5417R microcentrifuge fitted with a A-8-11 swing out rotor for 2 minutes at 10,000 rpm, the tube was placed into a custom-built adapter which coupled the base of the tube directly to a 400 micron fiber optic probe connected to a spectrofluorimeter (Fluorolog® 3 from Horiba Jobin-Yvon, New Jersey), and a complete EEM scan was taken (Ex 260-850 nm; Em 260-1100 nm; every 5 nm). Following the scan, the supernatant was removed and the microbial pellet resuspended in 0.5 mL of Tryptic Soy Broth (TSB). Smears of the suspensions were prepared for Gram staining and twenty microliters of a 1:100 dilution were plated onto Sheep Blood Agar plates for viability estimation on a scale of NG (no growth) to 4+(maximal growth).

The test system of test [2] is S. pneumoniae strain, WM43. Description: Further testing of lysis buffers in combination with density cushions. As to conditions: irrespective of the makeup of the density cushion.
A further test has as its system S. pneumoniae WM48. The test is described as follows: Viable counts following lysis buffer treatment. As for the experimental part: (§1) A screening model was developed to enable testing the sensitivity of a larger number of microbial isolates to several detergents. Briefly, suspensions of test fastidious microorganisms were spiked into human blood-containing BacT/ALERT® SA culture media at 10^3-10^5 CFU/mL. Samples were treated with test Lysis Buffers for 1-5 minutes at 37 C, then if required, diluted 1:100 into TSB and plated for viable counts.

The next test concerns A. actinomycetecomitans. Description: Viable counts following lysis buffer treatment. As for the experimental part: as §1
A further test relates to H. influenzae. The test is described as follows: Viable counts following lysis buffer treatment. How it is done: as §1
The next test deals with N. meningitidis. Description: Viable counts following lysis buffer treatment. As for the experimental part:
as §1

Another test concerns C. hominis. The test is described as follows: Viable counts following lysis buffer treatment. How it is done: as §1
For the next test, the system named is S. pneumoniae WM43. Description: Viable counts following lysis buffer treatment. How it is done: as §1
A further test relates to H. parainfluenzae. Description: Viable counts following lysis buffer treatment. How it is done: as §1
Test [3] relates to S. pneumoniae, S. pyogenes, S. agalactiae, S. mitis, P. mirabilis, K. pneumoniae and E. coli. The test is described as follows: Follow up experiment: viability after 5-minute contact time. The following applies: data not shown.
For test [4], the system named is fastidious microorganisms. The test is described as follows: Screening model, summary over the panel. The following applies: summary of the colony counts of Table 6. As for the experimental part:
as §1

In the case of Triton ® X100-R [Detergent 3], the “Gram Stain of Pellet: Bacteria (cocci)” value in test [1] is listed as 2+ Gram negative. Also, the “viability of the recovered S. pneumoniae cells (in words)” value in test [2] is listed as “not as high”.

For the molecule `CCCCCCCCO[C@@H]1O[C@H](CO)[C@@H](O)[C@H](O)[C@H]1O` [Detergent 1, n-octyl glucoside, reference compound], the “Gram Stain of Pellet: Bacteria (cocci)” value in test [1] is on record as “No organisms seen”.

Regarding Genapol ® C-100 [Detergent 7], the “Viable Counts Following Lysis Buffer Treatment” value is reported as 17 in the test with S. pneumoniae WM48 (1 min at 37 C); 12 in the test with S. pneumoniae WM48 (5 min at 37 C); 0 in the test with A. actinomycetecomitans (1 min at 37 C); 0 in the test on A. actinomycetecomitans (5 min at 37 C); 0 with H. influenzae (1 min at 37 C); 0 with H. influenzae (5 min at 37 C). Besides, the “Viable Counts Following Lysis Buffer Treatment” value turned out to be 0 in the test with N. meningitidis (1 min at 37 C); 0 in the test on N. meningitidis (5 min at 37 C); 0 in the test with C. hominis (1 min at 37 C); 0 with C. hominis (5 min at 37 C); 30 in the test on S. pneumoniae WM43 (1 min at 37 C); 19 in the test with S. pneumoniae WM43 (5 min at 37 C). Moreover, the “Viable Counts Following Lysis Buffer Treatment” value with H. parainfluenzae (1 min at 37 C) and in the test with H. parainfluenzae (5 min at 37 C) was 0 each time. Further, the “toxicity (in words)” value in the test on C. hominis (compared with Brij® 97) and in the test on H. parainfluenzae (compared with Brij® 97) was “slightly more toxic” throughout. Besides, the “Gram Stain of Pellet: Bacteria (cocci)” value in [1] is on record as 3+ Gram positive. Moreover, the “viability (in words)” value in test [3] was “remained unaffected”.

As for Brij ® 98 [Detergent 12], in test [1], the “Gram Stain of Pellet: Bacteria (cocci)” value is on record as 3+ Gram positive.

On to Genapol ® X-080 [Detergent 5], for which the “effect on Gram reaction/reactivity of the S. pneumoniae isolate (in words)” value in test [1] is listed as “relatively minor effect”.

Take Brij ® 96V [Detergent 9]: in test [1], the “Gram Stain of Pellet: Bacteria (cocci)” value was 3+ Gram positive.

As to `CCCCCCCCCCCCOCCOCCOCCOCCOCCOCCOCCOCCOCCO` [Detergent 6, nonaethylene glycol monododecyl ether, reference compound], in test [1], the “Viability of Pellet” value was 4+ and the “effect on Gram reaction/reactivity of the S. pneumoniae isolate (in words)” value is “relatively minor effect”. Further, in test [2], the “viability of the recovered S. pneumoniae cells (in words)” value was “not as high”.

As for `C[C@H](CCC(=O)NCCC[N+](C)(C)CCCS(=O)(=O)[O-])[C@H]1CC[C@H]2[C@@H]3[C@H](O)C[C@@H]4C[C@H](O)CC[C@]4(C)[C@H]3C[C@H](O)[C@]12C` [Detergent 2, CHAPS, reference compound], the “Gram Stain of Pellet: Bacteria (cocci)” value in test [1] is given as “Rare Gram negative”.

Take Genapol ® X-100 [Detergent 8]: in test [1], the “Viability of Pellet” value is 4+ and the “Gram Stain of Pellet: Bacteria (cocci)” value was 3+ Gram positive.

As for Arlasolve 200 [Detergent 11], in [1], the “Gram Stain of Pellet: Bacteria (cocci)” value is 3+ Gram positive.

In the case of Brij ® 97 [Detergent 10], in test [4], the “toxicity over the panel (in words)” value was “minimal toxicity”. Further, the “Viable Counts Following Lysis Buffer Treatment” value with S. pneumoniae WM48 (1 min at 37 C) was 14; in the test with S. pneumoniae WM48 (5 min at 37 C), 11; with A. actinomycetecomitans (1 min at 37 C) it was 0; with A. actinomycetecomitans (5 min at 37 C), 0; in the test with H. influenzae (1 min at 37 C) it was 0; with H. influenzae (5 min at 37 C) it was 0. Also, the “Viable Counts Following Lysis Buffer Treatment” value was found to be 0 in the test with N. meningitidis (1 min at 37 C); 0 in the test with N. meningitidis (5 min at 37 C); 74 with C. hominis (1 min at 37 C); 28 with C. hominis (5 min at 37 C); 18 in the test on S. pneumoniae WM43 (1 min at 37 C); 7 in the test on S. pneumoniae WM43 (5 min at 37 C). In addition, the “Viable Counts Following Lysis Buffer Treatment” value in the test on H. parainfluenzae (1 min at 37 C) was determined as 124; in the test with H. parainfluenzae (5 min at 37 C), 19. For the same molecule, in test [1], the “Viability of Pellet” value is 4+. In addition, in [1], the “Gram Stain of Pellet: Bacteria (cocci)” value is on record as 3+ Gram positive. For the same molecule, the “viability (in words)” value in [3] is given as “remained unaffected”.
